How the values were obtained:
[1] = test system: homologous passive cutaneous anaphylaxis (PCA); test: Inhibitory activity against homologous passive cutaneous anaphylaxis (PCA) in rats; assay type: in vivo, rat (male Wistar); settings: 100 mg/kg, oral, 1 hour before the antigen
Method: [II]Inhibitory activity against homologous passive cutaneous anaphylaxis (PCA) in rats
Antiserum was prepared according to I. Mota [Immunology, 7, 681(1964)] and the PCA reaction was conducted according to Maruyama et al. [Nippon yakurigakkaishi, 74, 179(1978)].
(1) Preparation of antiserum
An ovalbumin solution (2 mg/ml) was injected intramuscularly into both thighs of male Wistar rats weighing 200 to 260 g in a volume of 0.5 ml/100 g body weight, and pertussis vaccine (Bordetella pertussis, 2×10^10 /ml, Chibaken Kessei Kenkyujo) was intraperitoneally administered at 1 ml/rat. Twelve days later, blood was taken from posterior aorta under ether anesthesia and antiserum was stored at -80° C.
Group of 4 male Wistar rats weighing 180 to 210 g were employed. Back of the animals was shaved and each 0.05 ml of antiserum (1:32 dilution) was injected intradermally at four sites on the back. After 48 hours, 1 ml of a mixture of ovalbumin (1 mg/ml) and Evans blue (5 mg/ml) was injected intravenously into the tail. 30 Minutes later, the animals were killed under ether anesthesia. The blue-dyed area (mm^2) formed was measured and an inhibition rate(%) was calculated as compared with control.
Test compound suspended in a 2.5% acacia containing 0.2% Tween 80 was administered orally in a volume of 0.5 ml/100 g body weight 1 hour before the antigen. Tranilast was administered orally 30 minutes before the antigen.

[2] = biological target: T1, epidermal growth factor acceptor-tyrosinekinase complex (Homo sapiens, UniProt P00533); test: Tyrosinekinase inhibitory activity (A-431 membrane specimen, EGF-stimulated, [γ-32P]ATP); assay type: biochemical, human (A-431 cell line derived from human cancerous cell); settings: read-out: Inhibition rate (tyrosinekinase)
T1 construct: endogenous in cells; host or cells: A-431 (membrane specimen, not solubilized)
T1 sequence (P00533 25-1210): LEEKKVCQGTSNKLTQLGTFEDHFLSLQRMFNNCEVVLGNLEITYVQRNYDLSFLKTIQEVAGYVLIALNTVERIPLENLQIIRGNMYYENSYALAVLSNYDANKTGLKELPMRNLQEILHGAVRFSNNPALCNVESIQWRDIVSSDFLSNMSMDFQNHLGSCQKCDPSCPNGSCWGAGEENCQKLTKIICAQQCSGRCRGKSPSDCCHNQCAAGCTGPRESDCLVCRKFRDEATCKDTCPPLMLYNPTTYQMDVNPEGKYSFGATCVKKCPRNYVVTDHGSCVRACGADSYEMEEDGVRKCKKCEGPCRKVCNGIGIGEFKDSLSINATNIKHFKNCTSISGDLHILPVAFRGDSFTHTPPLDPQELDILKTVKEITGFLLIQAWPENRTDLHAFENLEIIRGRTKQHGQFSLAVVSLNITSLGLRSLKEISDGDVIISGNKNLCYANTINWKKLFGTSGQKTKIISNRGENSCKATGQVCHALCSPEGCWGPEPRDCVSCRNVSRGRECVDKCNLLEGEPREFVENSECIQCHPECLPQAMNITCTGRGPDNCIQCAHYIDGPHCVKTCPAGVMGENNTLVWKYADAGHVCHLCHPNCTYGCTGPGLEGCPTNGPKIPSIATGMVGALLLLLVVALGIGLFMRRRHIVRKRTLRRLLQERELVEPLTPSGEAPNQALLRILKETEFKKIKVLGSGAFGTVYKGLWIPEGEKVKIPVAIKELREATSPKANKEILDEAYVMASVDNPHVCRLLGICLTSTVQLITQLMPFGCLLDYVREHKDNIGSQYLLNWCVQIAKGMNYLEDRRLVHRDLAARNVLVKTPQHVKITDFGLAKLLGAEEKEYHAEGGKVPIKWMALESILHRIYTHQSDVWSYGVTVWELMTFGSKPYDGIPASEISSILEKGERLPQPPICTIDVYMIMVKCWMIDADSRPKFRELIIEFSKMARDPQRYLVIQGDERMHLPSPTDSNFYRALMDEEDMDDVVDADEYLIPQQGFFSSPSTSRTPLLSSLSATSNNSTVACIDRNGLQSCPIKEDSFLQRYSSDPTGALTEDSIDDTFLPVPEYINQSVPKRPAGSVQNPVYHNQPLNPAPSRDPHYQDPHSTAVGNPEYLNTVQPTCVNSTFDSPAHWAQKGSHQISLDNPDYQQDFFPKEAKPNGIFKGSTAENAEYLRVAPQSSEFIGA
T1 sequence (P01132 977-1029 partner limits assumed): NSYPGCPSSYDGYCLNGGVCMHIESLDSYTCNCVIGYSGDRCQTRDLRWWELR
Method: Tyrosinekinase inhibitory activity of the compound of the present invention was measured by employing a method for measuring tyrosinekinase activity by G. Carpentor or by S. Cohen et al. [J. Biol. Chem., 254, 4884 (1979); J. Biol. Chem., 257, 1523 (1982)].
Cell line A-431 derived from human cancerous cell was cultured at 37° C. under the condition of 5% CO2 in Dulbecco's modified Eagle medium (made by DAINIPPON PHARMACEUTICAL CO., LTD.) containing 10% fetal bovine serum, 50 μg/ml of streptomycin, 50 IU/ml of penicillin G and 50 μg/ml of canamycin. The obtained cells were treated according to the above Cohen or Graham et al. to give membrane specimen containing epidermal growth factor acceptor-tyrosinekinase complex (hereinafter referred to as "membrane specimen"). The membrane specimen was employed in the following measurement without solubilization.
Sample dissolved in dimethylsulfoxide was added to a mixture of 20 mM of N-2-hydroxyethylpyperadino-N'-2-ethanesulfonate buffer (pH 7.4), 1 mM of MnCl2, 7.5 μg of bovine serum albumin and the membrane specimen (10 μg as protein). After incubation at 0° C. for 5 minutes, 100 ng of epidermal growth factor (hereinafter referred to as "EGF" was added and the mixture was further incubated at 0° C. for 15 minutes. [γ-^32 P]ATP (3000 Ci/mmol, 0.1 μCi) was added to make final volume of 70 μl. After incubation at 0° C. for 15 minutes, 50 μl of the reaction solution was soaked into Wattman 3 MM filter paper and immediately the reaction was stopped by 10% trichloroacetic acid-10 mM sodium pyrophosphate aqueous solution. The filter paper was sufficiently washed with the same solution and then washed with ethanol and dried. Radioactivity present in the filter paper was measured by liquid scintillation counter (A). Similarly, radioactivity was measured in case of the reaction without EGF (B), the reaction without the sample (C), and the reaction without both EGF and the sample (D) as a control.
Tyrosinekinase inhibition rate (%) was calculated by the following equation. [formula]

[3] = test system: antigen-induced anaphylactic shock death; test: Protective effect against anaphylactic shock in actively sensitized guinea pigs; assay type: in vivo, guinea pig (male); settings: Cavia porcellus; 100 mg/kg, oral, 30 minutes before antigen inhalation; survival 90 minutes or more; read-out: Protecting Effect (Number of test animal survivied/Number of test animal) (converted)
Method: [III] Protective effect against anaphylactic shock in actively sensitized guinea pigs
Antigen-induced anaphylactic shock death was observed according to John P. Devlin [Pulmonary and Antiallergic Drugs, John Wiley & Sons, 155 (1985)].
Each 100 mg/kg of ovalbumin dissolved in physiological saline was injected into peritoneal cavity and into gluteus of male guinea pigs weighing 250 to 350 g. 3 Days later, the animals were further injected intraperitoneally with ovalbumin (100 mg/kg). Those animals were employed for testing 3 to 4 weeks after first sensitization. Actively sensitized guinea pigs were pretreated subcutaneously with pyrilamine (1 mg/kg, 30 min.) to suppress histamine-dependent response and with propanolol ([…], 10 min.) to enhance the response induced by other than histamine before the antigen.
The animal was placed in a desiccator with a capacity of about 5 l and 0.5% aqueous solution of ovalbumin was inhaled with ultrasonic type nebulizer for five minutes. Anaphylactic shock death was observed and the animals survived for 90 minutes or more after antigen were estimated to be protected. The compounds of the present invention and antiasmatic agent were administered orally 30 minutes before the antigen inhalation. The control received vehicle alone similarly.

[4] = test system: SRS-A biosynthesis or release; test: SRS-A biosynthesis or release inhibitory activity (ovalbumin-challenged sensitized guinea pig lung fragments, bioassay on guinea pig ileum); assay type: cell-based, guinea pig (male Hartley); settings: Cavia porcellus, read-out: Inhibition rate (SRS-A biosynthesis or release)
Method: [I] SRS-A biosynthesis or release inhibitory activity
SRS-A biosynthesis or release inhibitory activity was examined according to Koda et al. [Nippon yakurigakkaishi, 66, 194(1970)] and Kono-Watanabe et al. [J. Immunology, 125, 946(1980)].
Male Hartley guinea pigs weighing 350 to 450 g were sensitized by injecting once each 1 ml of an ovalbumin (100 mg/ml) into gluteus and peritoneal cavity. Four weeks after the injection, the animals were killed and then immediately the lung was perfused with cooled Tyrode's solution to remove blood. The lung was chopped into about 2 mm fragments and 500 mg of the fragments were suspended in 4.84 ml of Tyrode's solution, to which 0.01 ml of the test compound dissolved in dimethylsulfoxide (DMSO) was added. After incubation at 37° C. for 10 minutes, 0.15 ml of an ovalbumin (10 mg/ml) was added, followed by incubation at 37° C. for 20 minutes. In control, DMSO was added and the reaction was conducted in the same manner. The reaction mixture was filtered with gauze.
An amount of SRS-A in the filtrate was bioassayed using guinea pig ileum; i.e. the ileum (length: 2 to 3 cm) was suspended in Magnus tube containing aerated Tyrode's solution at 31° C. and, after the plateau of contraction was obtained, an amount of SRS-A in the above filtrate was bioassayed in the presence of 1 μM of atropine and 1 μM of pyrilamine. Inhibition rate (%) was calculated from a contraction in control as 100.

Row | Structure (SMILES) | Inhibition rate (PCA reaction, blue-dyed area) [1] [%] | inhibition at 10 µM [2] [%] | inhibition at 100 µM [2] [%] | responders at 100 mg/kg [3] [%] | inhibition at 100 µM [4] [%]
1 | CCOc1cc(C=C(C#N)C(N)=O)cc(CSc2ccccc2)c1O [I] | 21 | 100 | 100 | 40 | 92
2 | CCOc1cc(C=C2CCNC2=O)cc(CSc2ccccc2)c1O [XXVII] | 25 | 96 | 100 | 75 | 100
